Experimental data from US20260021167A1, “COMPOSITIONS AND METHODS FOR TREATING OR PREVENTING NEURODEGENERATIVE DISEASES” (Delaware State University, priority 2022, published 2026).

How the values were obtained:
Assay type in all cases: in vivo, mouse
[1] = test system: TH+ dopaminergic neurons; test: Immunohistochemistry of TH staining in striatum and SNc of PFF-injected mice
Procedure: (§1) A mouse model of Parkinson's disease is C57BL/6 male or female mice (50% each) injected with 5 μg of mouse PFF at 12 months old, followed by a treatment below for 6-7 weeks: • 1) without PFF injection, followed by vehicle (control, n=7); • 2) PFF injection, followed by vehicle (PFF only: control, n=8); • 3) PFF injection, followed by daily 10 mg/kg Momordin gavage (n=7-8); • 4) PFF injection, followed by daily 50 mg/kg Momordin gavage (n=7-8).
Immunohistochemistry. The serial coronal sections of the right hemisphere were collected throughout the striatum and substantia nigra. Each section with a thickness of 14 μm was mounted as a set of 5 onto positively charged slides (Midwest Sci, Valley Park, MO). The slides were kept at −80° C. until immunohistochemistry was performed. The sections were thawed at room temperature for 30 min, followed by a rehydration step in 0.1M PB for 10 min. The permeabilization step was performed using pre-chilled 100% acetone for 10 min. The excess acetone was dried, and permeabilization solution (40 µL Triton-X in 2% BSA) was added to the slides and kept aside for an additional 10 min. A blocking reagent containing 5% BSA in PB-T was given in the blocking step after drying the slides of excess permeabilization solution. The primary antibody was exposed under the coverslips to prevent the dehydration of the primary antibody. After the primary antibody (EMD Millipore-AB152) treatment at 4° C. overnight, the tissues were washed in PBS-T for 5 min three times. Then, slides were treated with a secondary antibody of Alexa-647-conjugated goat anti-rabbit (1:1000; Molecular Probes, Thermo Fisher Scientific) and incubated at room temperature for 2 h. The secondary antibody was washed in PBS-T for 3×5 min. Coverslips were mounted on slides using ProLong Diamond antifade mounting medium (Thermofisher, MA, USA). All images were captured using EVOS FL Cell Imaging Systems (Invitrogen), and every fifth section was analyzed for measuring the intensity of TH staining in the striatum and counting TH+ neurons in the SNc in a blinded manner. The same procedure was used for assessing the levels of phosphorylated Ser-129-α-synuclein (1:500, Cell signaling, cat #23706S) and protein aggregation using thioflavin-T (20 μM, Acros). Pictures for specific regions such as the striatum and ventral midbrain (vMB) were taken using confocal microscopy and stitched together to obtain a single image for representation purposes. The intensities were measured using ImageJ by a blinded rater.
Immunohistochemistry. The serial coronal sections of the right hemisphere were collected throughout the striatum and substantia nigra. Each section with a thickness of 14 μm was mounted as a set of 5 onto positively charged slides (Midwest Sci, Valley Park, MO). […]

[2] = test system: PFF-injected old mice; test: Rotarod in PFF-injected mice; conditions: 10 and/or 50 mg/kg oral, vs PFF only
Procedure: as §1
Rotarod. Rotarod is a behavioral test used to measure motor functionality. For three consecutive days, all the mice were habituated on the rotating rod comprising a horizontal plane rotating at a speed of 4 rotations per minute (rpm), increasing by 2 rpm every minute for 10 min or until they fell off the rod at 20 rpm. The data were collected over three consecutive days where the animals were placed on the rod at 4 rpm, and the rod increased the speed by 1 rpm every 16 sec for 10 min or until the mouse fell off. A longer latency to fall indicates an improved motor functionality.

[3] = test system: PFF-injected old mice; test: Hindlimb clasping in PFF-injected mice; conditions: 10 and/or 50 mg/kg oral, vs PFF only
Procedure: as §1
Hindlimb Clasping. This is often characterized by bat-like posture when mice are picked up by the tail, indicating they are experiencing severe motor deficits. A mouse was placed on a horizontal plane and held at 2 cm from the tail tip, then slowly to the height of 10 cm from the surface. A video was recorded for 15 sec for each trial. A total of 3 trials were taken over 3 consecutive days and analyzed for the time in hindlimb clasping by a blinded rater.

[4] = test system: phosphorylated α-synuclein; test: Western blot of phosphorylated α-synuclein in brain tissue extracts of PFF-injected mice; conditions: both doses, vs PFF only
Procedure: as §1
Immunoblot Analyses. A total of three protein extractions were performed. In the first extraction, a gentle RIPA buffer containing the low concentration of detergent (25 mM Tris-HCL, 150 mM NaCl, 1% NP-40, 1% sodium deoxycholate and 0.1% SDS) was added with phosphatase inhibitors (100 μL for 10 mL) and 5 mM EDTA. The mixture was sonicated and centrifuged at 14,000 rpm for 10 min. The supernatant was collected for measuring the levels of phosphorylated α-syn, SENP-1 or SUMO-1 conjugated proteins for different groups. […] The primary antibodies pertaining to each protein analyzed were diluted at 1:1000 (p-Ser-129-α-synuclein, Cell signaling; SENP-1, SAB4501345, EMD) and incubated at 4° C. overnight. […] ImageJ was used to analyze specific bands on each blot and measured against the loading control (β-actin) for normalizing each band intensity.

CC1(C)CC[C@]2(C(=O)O)CC[C@]3(C)C(=CC[C@@H]4[C@@]5(C)CC[C@H](O[C@@H]6O[C@H](C(=O)O)[C@@H](O)[C@H](O[C@@H]7OC[C@@H](O)[C@H](O)[C@H]7O)[C@H]6O)C(C)(C)[C@@H]5CC[C@]43C)[C@@H]2C1 [Momordin lc]
recovery from damages in the striatum and Substantia Nigra compacta (SNc) ([1]; 50 mg/kg oral for 6-7 weeks, PFF-injected mice): effective | dopaminergic neuronal death / neuronal cell loss in mouse brains ([1]; PFF injection): reverse dopaminergic neuronal death | number of TH+ dopaminergic neurons in the SNc ([1]; both doses (10 and 50 mg/kg) oral for 6-7 weeks, PFF-injected mice, vs PFF only): significantly recovered | intensity of TH+ label in the striatum ([1]; oral treatment for 6-7 weeks, PFF-injected mice, vs PFF only): improves the intensity of TH+ label | mobility on rotarod [2]: enhances the mobility on rotarod | hindlimb clasping [3]: reduces hindlimb clasping | phosphorylated α-synuclein in the MB (Western blot, tissue extracts) ([4]; midbrain): reversed | phosphorylated α-synuclein in the STR (Western blot, tissue extracts) ([4]; striatum): reversed
